Test results taken from the NIST ThermoML archive (doi:10.1021/je049808f).

Assay: cn = amount concentration of the nth substance listed, in mol/dm3
Conditions: 100 kPa, Liquid

[I-].[NH4+] [ammonium iodide] + CCO
Conditions | mass density [kg/m3] | viscosity [mPa·s]
298.15 K, c1 = 0.1638 | 804.1 | 1.229
298.15 K, c1 = 0.2289 | 811.7 | 1.275
298.15 K, c1 = 0.3302 | 823.9 | 1.35
298.15 K, c1 = 0.4015 | 832.7 | 1.414
298.15 K, c1 = 0.4696 | 841.1 | 1.495
298.15 K, c1 = 0.6094 | 859.4 | 1.557
298.15 K, c1 = 0.6694 | 867 | 1.598
298.15 K, c1 = 0.7343 | 875.8 | 1.663
298.15 K, c1 = 0.8676 | 894.5 | 1.77
298.15 K, c1 = 0.972 | 908.9 | 1.839
303.15 K, c1 = 0.1629 | 799.8 | 1.12
303.15 K, c1 = 0.2276 | 807.4 | 1.161
303.15 K, c1 = 0.3285 | 819.6 | 1.225
303.15 K, c1 = 0.3994 | 828.4 | 1.284
303.15 K, c1 = 0.4673 | 836.9 | 1.359
303.15 K, c1 = 0.6064 | 855.1 | 1.413
303.15 K, c1 = 0.6661 | 862.7 | 1.454
303.15 K, c1 = 0.7307 | 871.6 | 1.499
303.15 K, c1 = 0.8635 | 890.2 | 1.599
303.15 K, c1 = 0.9674 | 904.7 | 1.674
308.15 K, c1 = 0.162 | 795.5 | 1.048
308.15 K, c1 = 0.2264 | 803.1 | 1.059
308.15 K, c1 = 0.3268 | 815.3 | 1.117
308.15 K, c1 = 0.3974 | 824.1 | 1.165
308.15 K, c1 = 0.4658 | 834.2 | 1.241
308.15 K, c1 = 0.6033 | 850.8 | 1.287
308.15 K, c1 = 0.6628 | 858.4 | 1.327
308.15 K, c1 = 0.7271 | 867.3 | 1.365
308.15 K, c1 = 0.8593 | 885.9 | 1.459
308.15 K, c1 = 0.9628 | 900.4 | 1.544
313.15 K, c1 = 0.1611 | 791.1 | 0.935
313.15 K, c1 = 0.2252 | 798.8 | 0.968
313.15 K, c1 = 0.3251 | 811 | 1.02
313.15 K, c1 = 0.3952 | 819.7 | 1.062
313.15 K, c1 = 0.4634 | 829.3 | 1.1
313.15 K, c1 = 0.6003 | 846.5 | 1.175
313.15 K, c1 = 0.6595 | 854.1 | 1.226
313.15 K, c1 = 0.7235 | 863 | 1.246
313.15 K, c1 = 0.8551 | 881.6 | 1.324
313.15 K, c1 = 0.9582 | 896.1 | 1.388

[I-].[NH4+] [ammonium iodide] + CO
Conditions | mass density [kg/m3] | viscosity [mPa·s]
298.15 K, c1 = 0.1696 | 807.2 | 0.597
298.15 K, c1 = 0.3281 | 826.3 | 0.628
298.15 K, c1 = 0.4765 | 845.4 | 0.674
298.15 K, c1 = 0.5841 | 859.1 | 0.692
298.15 K, c1 = 0.5862 | 859.4 | 0.688
298.15 K, c1 = 0.7482 | 881.8 | 0.737
298.15 K, c1 = 0.8737 | 899.4 | 0.771
298.15 K, c1 = 0.9947 | 916.9 | 0.802
298.15 K, c1 = 1.105 | 933.34 | 0.836
298.15 K, c1 = 1.209 | 949.2 | 0.865
298.15 K, c1 = 1.334 | 968.4 | 0.903
298.15 K, c1 = 1.417 | 981.5 | 0.93
298.15 K, c1 = 1.507 | 996.2 | 0.96
303.15 K, c1 = 0.1686 | 802.6 | 0.557
303.15 K, c1 = 0.3262 | 821.6 | 0.586
303.15 K, c1 = 0.4739 | 840.8 | 0.628
303.15 K, c1 = 0.581 | 854.5 | 0.648
303.15 K, c1 = 0.7443 | 877.2 | 0.688
303.15 K, c1 = 0.8692 | 894.8 | 0.719
303.15 K, c1 = 0.9897 | 912.3 | 0.749
303.15 K, c1 = 1.099 | 928.8 | 0.781
303.15 K, c1 = 1.203 | 944.6 | 0.809
303.15 K, c1 = 1.327 | 963.8 | 0.847
303.15 K, c1 = 1.41 | 976.9 | 0.868
303.15 K, c1 = 1.5 | 991.6 | 0.898
308.15 K, c1 = 0.1676 | 797.9 | 0.522
308.15 K, c1 = 0.3018 | 813.9 | 0.54
308.15 K, c1 = 0.4712 | 836.1 | 0.587
308.15 K, c1 = 0.5799 | 850.1 | 0.6
308.15 K, c1 = 0.7404 | 872.6 | 0.644
308.15 K, c1 = 0.8647 | 890.2 | 0.682
308.15 K, c1 = 0.9847 | 907.6 | 0.701
308.15 K, c1 = 1.094 | 924.3 | 0.729
308.15 K, c1 = 1.197 | 940 | 0.756
308.15 K, c1 = 1.321 | 959.2 | 0.789
308.15 K, c1 = 1.403 | 972.3 | 0.813
308.15 K, c1 = 1.493 | 987 | 0.84
313.15 K, c1 = 0.1667 | 793.1 | 0.49
313.15 K, c1 = 0.3001 | 809.2 | 0.506
313.15 K, c1 = 0.4686 | 831.4 | 0.551
313.15 K, c1 = 0.5767 | 845.4 | 0.563
313.15 K, c1 = 0.7364 | 867.9 | 0.604
313.15 K, c1 = 0.8602 | 885.5 | 0.631
313.15 K, c1 = 0.9797 | 903 | 0.658
313.15 K, c1 = 1.089 | 920 | 0.685
313.15 K, c1 = 1.191 | 935.4 | 0.71
313.15 K, c1 = 1.315 | 954.6 | 0.741
313.15 K, c1 = 1.397 | 967.7 | 0.763
313.15 K, c1 = 1.486 | 982.4 | 0.788
